Laboratory results from patent US4684664A, “Derivatives of β-(4-isocyano-1,2,3,4-diepoxycyclopentyl) acrylic acid” (Kureha Kagaku Kogyo Kabushiki Kaisha, priority 1984, dated 1987).
In brackets after ≈: the same amount, converted by molar mass.

Assays:
Type in all cases: cell-based
[1] = test system: Staphylococcus aureus FDA 209PJc-1; experiment: Antibacterial activity, agar-dilution MIC, organism No. 1; details: Staphylococcus aureus, FDA209PJC1; Organism No. 1, bouillon-agar; read-out: Minimum Inhibitory Concentration
Method in brief: (§1)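 MICs were determined by agar dilution on bouillon-agar medium. The value is the minimum concentration of specimen inhibiting growth, expressed as μg/ml of culture medium.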

[2] = test system: Staphylococcus aureus Terajima; experiment: Antibacterial activity, agar-dilution MIC, organism No. 2; details: Staphylococcus aureus; Organism No. 2, bouillon-agar; read-out: Minimum Inhibitory Concentration
Method in brief: as §1

[3] = test system: Staphylococcus aureus MS 353; experiment: Antibacterial activity, agar-dilution MIC, organism No. 3; details: Staphylococcus aureus, MS353; Organism No. 3, bouillon-agar; read-out: Minimum Inhibitory Concentration
Method in brief: as §1

[4] = test system: Streptococcus pyogenes Cook; experiment: Antibacterial activity, agar-dilution MIC, organism No. 4; details: Streptococcus pyogenes; Organism No. 4, bouillon-agar; read-out: Minimum Inhibitory Concentration
Method in brief: as §1

[5] = test system: Escherichia coli NIHJ-JC-2; experiment: Antibacterial activity, agar-dilution MIC, organism No. 5; details: Escherichia coli, NIHJJC2; Organism No. 5, bouillon-agar; read-out: Minimum Inhibitory Concentration
Method in brief: as §1

[6] = test system: Escherichia coli K12 C600 IAM 1264; experiment: Antibacterial activity, agar-dilution MIC, organism No. 6; details: Escherichia coli, IAM1264; Organism No. 6, bouillon-agar; read-out: Minimum Inhibitory Concentration
Method in brief: as §1

[7] = test system: Klebsiella pneumoniae PCI-602; experiment: Antibacterial activity, agar-dilution MIC, organism No. 7; details: Klebsiella pneumoniae, PCI602; Organism No. 7, bouillon-agar; read-out: Minimum Inhibitory Concentration
Method in brief: as §1

[8] = test system: Salmonella typhimurium IID 971; experiment: Antibacterial activity, agar-dilution MIC, organism No. 8; details: Salmonella enterica; Organism No. 8, bouillon-agar; read-out: Minimum Inhibitory Concentration
Method in brief: as §1

Salmonella typhi 901 = experiment: Antibacterial activity, agar-dilution MIC, organism No. 9; details: Salmonella enterica, TYPHI, read-out: Minimum Inhibitory Concentration
Method in brief: as §1

[9] = test system: Salmonella paratyphi-A 1015; experiment: Antibacterial activity, agar-dilution MIC, organism No. 10; details: Salmonella enterica, PARATYPHI, read-out: Minimum Inhibitory Concentration
Method in brief: as §1

[10] = test system: Salmonella shottmuelleri 8006; experiment: Antibacterial activity, agar-dilution MIC, organism No. 11; details: Salmonella, 8006; Organism No. 11, bouillon-agar; read-out: Minimum Inhibitory Concentration
Method in brief: as §1

[11] = test system: Salmonella enteritidis G 14; experiment: Antibacterial activity, agar-dilution MIC, organism No. 12; details: Salmonella enterica, ENTERITIDIS; Organism No. 12, bouillon-agar; read-out: Minimum Inhibitory Concentration
Method in brief: as §1

[12] = test system: Serratia marcescens IAM 1184; experiment: Antibacterial activity, agar-dilution MIC, organism No. 13; details: Serratia marcescens, IAM1184; Organism No. 13, bouillon-agar; read-out: Minimum Inhibitory Concentration
Method in brief: as §1

[13] = test system: Bacillus subtilis ATCC 6633; experiment: Antibacterial activity, agar-dilution MIC, organism No. 14; details: Bacillus subtilis, ATCC6633; Organism No. 14, bouillon-agar; read-out: Minimum Inhibitory Concentration
Method in brief: as §1

[14] = test system: Pseudomonas aeruginosa IFO 3445; experiment: Antibacterial activity, agar-dilution MIC, organism No. 15; details: Pseudomonas aeruginosa, IFO3445; Organism No. 15, bouillon-agar; read-out: Minimum Inhibitory Concentration
Method in brief: as §1

[15] = test system: Pseudomonas aeruginosa NCTC 10490; experiment: Antibacterial activity, agar-dilution MIC, organism No. 16; details: Pseudomonas aeruginosa, NCTC10490; Organism No. 16, bouillon-agar; read-out: Minimum Inhibitory Concentration
Method in brief: as §1

[16] = test system: Pseudomonas aeruginosa PAO 1; experiment: Antibacterial activity, agar-dilution MIC, organism No. 17; details: Pseudomonas aeruginosa, PAO1; Organism No. 17, bouillon-agar; read-out: Minimum Inhibitory Concentration
Method in brief: as §1

[17] = test system: Proteus morganii IFO 3848; experiment: Antibacterial activity, agar-dilution MIC, organism No. 18; details: Morganella morganii, IFO3848; Organism No. 18, bouillon-agar; read-out: Minimum Inhibitory Concentration
Method in brief: as §1

[18] = test system: Proteus mirabilis IFO 3849; experiment: Antibacterial activity, agar-dilution MIC, organism No. 19; details: Proteus mirabilis, IFO3849; Organism No. 19, bouillon-agar; read-out: Minimum Inhibitory Concentration
Method in brief: as §1

Proteus vulgaris OX-19 = experiment: Antibacterial activity, agar-dilution MIC, organism No. 20; details: Proteus vulgaris, OX19; Organism No. 20, bouillon-agar; read-out: Minimum Inhibitory Concentration
Method in brief: as §1

Proteus vulgaris HX-19 = experiment: Antibacterial activity, agar-dilution MIC, organism No. 21; details: Proteus vulgaris, HX19; Organism No. 21, bouillon-agar; read-out: Minimum Inhibitory Concentration
Method in brief: as §1

[19] = test system: Proteus rettgeri IFO 3850; experiment: Antibacterial activity, agar-dilution MIC, organism No. 22; details: Providencia rettgeri, IFO3850; Organism No. 22, bouillon-agar; read-out: Minimum Inhibitory Concentration
Method in brief: as §1

[20] = test system: Enterobacter aerogenes ATCC 13048; experiment: Antibacterial activity, agar-dilution MIC, organism No. 23; details: Klebsiella aerogenes, ATCC13048; Organism No. 23, bouillon-agar; read-out: Minimum Inhibitory Concentration
Method in brief: as §1

Enterobacter cloacae 963 = experiment: Antibacterial activity, agar-dilution MIC, organism No. 24; details: Enterobacter cloacae, 963; Organism No. 24, bouillon-agar; read-out: Minimum Inhibitory Concentration
Method in brief: as §1

[21] = test system: Micrococcus luteus ATCC 9341; experiment: Antibacterial activity, agar-dilution MIC, organism No. 25; details: Micrococcus luteus, ATCC9341; Organism No. 25, bouillon-agar; read-out: Minimum Inhibitory Concentration
Method in brief: as §1

[22] = test system: Streptococcus pyogenes IFO 3340; experiment: Antibacterial activity, agar-dilution MIC, organism No. 26; details: Streptococcus pyogenes, IFO3340; Organism No. 26, bouillon-agar; read-out: Minimum Inhibitory Concentration
Method in brief: as §1

[23] = test system: Streptococcus faecium IFO 3826; experiment: Antibacterial activity, agar-dilution MIC, organism No. 27; details: Enterococcus faecium, IFO3826; Organism No. 27, bouillon-agar; read-out: Minimum Inhibitory Concentration
Method in brief: as §1

[24] = test system: Mycoplasma pneumoniae IID817; experiment: Antimycoplasmal activity, MIC by phenol red colour change, organism No. 28; details: Mycoplasma, IID817; Organism No. 28, PPLO broth + 1% glucose, 37° C.; read-out: Minimum Inhibitory Concentration (MIC)
Protocol: Mycoplasma pneumoniae IID817 was used as the test microorganism in a culture medium prepared by adding 1% of glucose to "PPLO broth (manufactured by Difco Co.) liquid culture medium" at 37° C. with phenol red as an indicator, thereby culturing the test microorganism.

[25] = test system: Candida albicans IAM 4905; experiment: Antifungal activity, agar-dilution MIC, organism No. 29; details: Candida albicans, IAM4905; Organism No. 29, bouillon-agar; read-out: Minimum Inhibitory Concentration
Method in brief: as §1

[26] = test system: Aspergillus niger IFO 6342; experiment: Antifungal activity, agar-dilution MIC, organism No. 30; details: Aspergillus niger, IFO6342; Organism No. 30, bouillon-agar; read-out: Minimum Inhibitory Concentration
Method in brief: as §1

Row | SMILES | MIC [1] | MIC [2] | MIC [3] | MIC [4] | MIC [5] | MIC [6] | MIC [7] | MIC [8] | MIC (Salmonella typhi 901) | MIC [9] | MIC [10] | MIC [11] | MIC [12] | MIC [13] | MIC [14] | MIC [15] | MIC [16] | MIC [17] | MIC [18] | MIC (Proteus vulgaris OX-19) | further results
1 | [C-]#[N+]C12CC3(/C=C/C(=O)Nc4ccc(C(=O)OC)cc4)OC3C1O2 (stereo not drawn) [compound 49] | < 0.05 µg/mL | < 0.05 µg/mL | < 0.05 µg/mL | 12.5 µg/mL (≈ 38.3 µM) | 50 µg/mL (≈ 153 µM) | 50 µg/mL (≈ 153 µM) | < 0.05 µg/mL | 0.39 µg/mL (≈ 1.2 µM) | 0.1 µg/mL (≈ 0.306 µM) | < 0.05 µg/mL | < 0.05 µg/mL | 0.39 µg/mL (≈ 1.2 µM) | 12.5 µg/mL (≈ 38.3 µM) | 0.78 µg/mL (≈ 2.39 µM) | > 200 µg/mL | > 200 µg/mL | > 200 µg/mL | 12.5 µg/mL (≈ 38.3 µM) | > 200 µg/mL | < 0.05 µg/mL | MIC (Proteus vulgaris HX-19): < 0.05 µg/mL; MIC [19]: < 0.05 µg/mL; MIC [20]: > 200 µg/mL; MIC (Enterobacter cloacae 963): 25 µg/mL (≈ 76.6 µM); MIC [21]: < 0.05 µg/mL; MIC [22]: < 0.05 µg/mL; MIC [23]: 25 µg/mL (≈ 76.6 µM); MIC [24]: < 0.2 µg/mL; MIC [25]: 1.56 µg/mL (≈ 4.78 µM); MIC [26]: 3.13 µg/mL (≈ 9.59 µM)
2 | [C-]#[N+]C12CC3(/C=C/C(=O)Nc4cccc(C(=O)OC)c4)OC3C1O2 (stereo not drawn) [compound 50] | 0.2 µg/mL (≈ 0.613 µM) | 1.56 µg/mL (≈ 4.78 µM) | 0.39 µg/mL (≈ 1.2 µM) | 200 µg/mL (≈ 613 µM) | > 200 µg/mL | > 200 µg/mL | 0.39 µg/mL (≈ 1.2 µM) | 50 µg/mL (≈ 153 µM) | 25 µg/mL (≈ 76.6 µM) | 6.25 µg/mL (≈ 19.2 µM) | 1.56 µg/mL (≈ 4.78 µM) | 6.25 µg/mL (≈ 19.2 µM) | > 200 µg/mL | 6.25 µg/mL (≈ 19.2 µM) | > 200 µg/mL | > 200 µg/mL | > 200 µg/mL | 1.56 µg/mL (≈ 4.78 µM) | > 200 µg/mL | 1.56 µg/mL (≈ 4.78 µM) | MIC (Proteus vulgaris HX-19): 0.1 µg/mL (≈ 0.306 µM); MIC [19]: 6.25 µg/mL (≈ 19.2 µM); MIC [20]: > 200 µg/mL; MIC (Enterobacter cloacae 963): 200 µg/mL (≈ 613 µM); MIC [21]: < 0.05 µg/mL; MIC [22]: 1.56 µg/mL (≈ 4.78 µM); MIC [23]: 12.5 µg/mL (≈ 38.3 µM); MIC [24]: < 0.2 µg/mL; MIC [25]: 0.79 µg/mL (≈ 2.42 µM); MIC [26]: 1.56 µg/mL (≈ 4.78 µM)
